Experimental data from paper PMC9007462 (Journal of Medicinal Chemistry, 2022).

Columns and labels:
Type in all cases: biochemical
Human ALDH1A1 [1] = molecular target: T1, Human ALDH1A1 (Homo sapiens, UniProt P00352); assay: DEAB analogues as substrates of ALDH1A1; conditions: 10 μM compound as substrate, relative to activity with 10 μM hexanal (Figure S2)
T1 construct: made in house
T1 sequence (P00352 1-501): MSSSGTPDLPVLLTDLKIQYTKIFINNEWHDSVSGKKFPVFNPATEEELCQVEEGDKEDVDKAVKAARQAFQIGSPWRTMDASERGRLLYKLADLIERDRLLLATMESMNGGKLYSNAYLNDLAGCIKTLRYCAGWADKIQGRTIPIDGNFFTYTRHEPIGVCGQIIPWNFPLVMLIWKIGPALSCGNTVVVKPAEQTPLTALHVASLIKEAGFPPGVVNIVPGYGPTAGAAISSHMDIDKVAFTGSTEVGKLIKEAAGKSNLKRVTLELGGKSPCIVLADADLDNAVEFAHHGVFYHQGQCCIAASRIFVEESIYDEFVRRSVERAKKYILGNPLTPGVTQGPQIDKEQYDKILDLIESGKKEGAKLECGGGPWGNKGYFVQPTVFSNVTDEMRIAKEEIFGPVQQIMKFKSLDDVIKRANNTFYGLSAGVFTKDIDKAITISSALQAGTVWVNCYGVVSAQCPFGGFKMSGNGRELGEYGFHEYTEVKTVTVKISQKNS
Procedure: (§1) Human ALDH1A1, ALDH1A3, and ALDH3A1 were cloned and recombinantly expressed from the pET-30 Xa/LIC vector. Protein purification was achieved by affinity chromatography on a nickel-charged chelating Sepharose Fast Flow 5-mL column (His Trap column, Cytiva), which specifically binds the protein due to its N-terminal (His)6 tag, using an ÄKTA FPLC system (Cytiva), as previously described.[55] Enzymes including the His tag were stored at −80 °C in 20 mM Tris/HCl and 0.5 M NaCl, pH 8.0, until use. Reaction buffers were as follows: ALDH1A1 was assayed in 50 mM HEPES, 0.5 mM EDTA, and 0.5 mM DTT, pH 8.0; ALDH1A3 was assayed in 50 mM HEPES, 30 mM MgCl2, and 5 mM DTT, pH 8.0; and ALDH3A1 was assayed in 50 mM Tris–HCl and 5 mM DTT, pH 8.0. Activity under standard conditions was measured fluorimetrically at 25 °C using a Cary Eclipse (Varian) fluorimeter to follow the purification procedure and to check the enzyme concentration before each kinetic experiment. The fluorescence of NADH was characterized at 460 nm with excitation at 340 nm, and 5 μM NAD(P)H was added as an internal standard to obtain the absolute reaction rates.[55] Standard activity was measured at saturating concentrations of substrate using 30 μM hexanal (ALDH1A1), 250 μM hexanal (ALDH1A3), or 250 μM 4-NBA (ALDH3A1). NAD^+ was 500 μM for ALDH1A1 and ALDH1A3, and NADP^+ was 1 mM for ALDH3A1.
According to their structure with a carbonyl group, compounds were tested for their substrate properties against ALDH1A1, ALDH1A3, and ALDH3A1. […] Results are expressed as the percentage of activity at 10 μM versus the activity at 10 μM of their standard substrate (hexanal or 4-NBA). Values are expressed as the mean ± SE.

Human ALDH1A1 [2] = molecular target: T1, Human ALDH1A1; assay: Inhibition screening, single point at 10 μM, ALDH1A1; conditions: 10 μM compound; 5 μM hexanal (Figure S1)
Procedure: as §1
All compounds tested were dissolved in DMSO and assayed at a final concentration of 1% (v/v) DMSO. […] For the initial screening, the enzymatic activity was measured in 96-well plates (final volume of 200 μL) in a Victor 3 Multilabel Plate Reader (Perkin Elmer), by monitoring the fluorescence of the NAD(P)H produced during the reaction (excitation at 340 nm and emission at 460 nm). Alternatively, the enzymatic activity was measured in a Varian Cary 400 UV–vis spectrophotometer, by monitoring the increase in the absorbance of NAD(P)H at 340 nm (ε = 6.22 mM^–1·cm^–1) or in a Cary Eclipse Varian fluorimeter, as described above. […] For ALDH1A1, 5 μM hexanal (Sigma) was used. For ALDH1A3, 10 and 250 μM hexanal (Sigma) were used. For ALDH3A1, 4-NBA (Sigma) was used at 31 and 250 μM. All substrates were prepared in the corresponding assay buffer at a concentration of 2 mM and further diluted to reach the final concentrations required per experiment. The concentration of the enzyme was kept from 50- to 100-fold lower than that of the substrate for all enzymatic assays.

Human ALDH1A1 [3] = molecular target: T1, Human ALDH1A1; assay: ALDH1A1 inhibition, IC50 determination
Procedure: as §1
In order to determine the IC50 values, reaction rates were determined at various concentrations of inhibitor at a fixed concentration of substrate. As substrates for ALDH1A1, ALDH1A3, and ALDH3A1, 5 μM hexanal, 6 μM hexanal, and 31 μM 4-NBA, respectively, were used. The IC50 values were calculated by nonlinear fitting of the obtained data to a sigmoidal plot using GraFit 5.0 (Erithacus software), with the following 4-parameter equation [drawing 2] , where y is the specific activity, x is the inhibitor concentration, background is the minimum y value, range is the fitted uninhibited value minus the background, and s is the slope factor. Values are expressed as the mean ± SE.

Row | ALDH1A1 substrate activity (Human ALDH1A1 [1]) [%] | SMILES | remaining ALDH1A1 activity (Human ALDH1A1 [2]) [%] | IC50 (Human ALDH1A1 [3]; 5 μM hexanal as substrate, mean ± SE) [µM] | fold less effective than DEAB in inhibiting ALDH1A1 (Human ALDH1A1 [3]; ratio of IC50 values vs DEAB)
1 | 17 | CCCN(CCC)c1ccc(C=O)cc1[N+](=O)[O-] [Compound 18, 4-(Dipropylamino)-3-Nitrobenzaldehyde] | – | – | –
2 | – | CCCN(CCC)c1ccc(C=O)cc1Br [Compound 14, 3-Bromo-4-(dipropylamino)benzaldehyde] | 45 | 7.08 ± 0.7 | approximately 15 fold
